According to publication PMC9879991, “Biomolecular condensates formed by designer minimalistic peptides” (Nature Communications, 2023):
No end group written: not given here.

How the values were obtained:
GFP = target: T1, GFP (Aequorea victoria, UniProt P42212); test: Encapsulation efficiency of peptide droplets, GFP payload; assay type: physicochemical; settings: C initial 50 µg/ml, 20 mM peptide; for %EE: 20 mM Tris + 0.2 M NaCl pH 8, 15,000 g 10 min, supernatant fluorescence Ex 395/Em 509 nm
T1 construct: purchased Abcam (purchased from Zotal)
Excerpt: Next, we studied how peptide composition affects the encapsulation efficiency of the droplets by using GFP, rhodamine B, and fluorescein as fluorescent payload model systems (Fig. 4). We analyzed the encapsulation efficiency of the fluorescent payloads by using both confocal microscopy and absorbance measurements of the payloads in the dilute vs. the condensed phase (Fig. 4a–c). […] WGR-1 has the highest EE of fluorescein. In addition to π-π interactions, WGR-1 might form hydrogen bonding with the hydroxyl groups or electrostatic interactions with the deprotonated carboxylic acid of the dye.
Stock solutions (1 mM) of the fluorescein and rhodamine B dye molecules were prepared in 20 mM Tris buffer. Coacervate solutions of 20 mM peptide were prepared in 20 mM Tris + 0.2 M NaCl at pH 8. From these, a volume of 148.5 µl was mixed with 1.5 µl of dye solution in a 1.5 ml Eppendorf tube and pipetted. After 10 min the samples were centrifuged at 15,000 × g for 10 min. A volume of 120 μl from the supernatant was collected and vortexed and then the absorbance of 35 μl triplicates was measured (at λ = 490 nm for fluorescein and λ = 555 nm for RhB) in a 384 well black plate by Biotek H1 synergy plate reader (purchased from Lumitron, Israel). For GFP, a 7.5 µl of 20 mM Tris buffer to a 7.5 μl GFP aliquot from the purchased stock solution. The 15 µl of GFP solution was added to 135 µl of peptide solution and was mixed in a 1.5 ml Eppendorf tube and pipetted. The concentration of GFP at the supernatant was measured via fluorescence. All experiments were performed in triplicate. The concentration of the supernatant solutions determinate by calibration curves. Imaging was made to 30 μl of uncentrifuged samples. Efficiency of encapsulation (%EE) was calculated using Eq. 2. 2 %EE=CT−Csup/CT

[1] = Phase diagram in tris buffer: pH at which turbidity (LLPS) appears vs peptide concentration; assay type: physicochemical; settings: 0.2 M NaCl, room temperature; for pH at which turbidity (LLPS) appears: 20 mM tris, turbidity A500
Excerpt: We sought to design a library of LLPS-promoting peptide building blocks which form synthetic biomolecular condensates with tunable chemical composition and physical properties. We hypothesized that minimalistic variants of protein low complexity domains (LCDs) will self-assemble into liquid droplets through LLPS. Specifically, we envisioned that in order to keep the sequence length relatively short, the peptide composition should include high content of aromatic and basic amino acids that can interact through π–π or cation–π interactions. To test this hypothesis, we designed a primary sequence that contains various LLPS-promoting motifs. Inspired by LCDs of ribonucleoproteins (RNPs) and IDPs that are rich in arginine-glycine (RG) dyad or RGG triad repeats, we incorporated three repeats of an RG dyad (Fig. 1a), where glycine (Gly) provides flexibility and arginine (Arg) promotes electrostatic interactions with the terminal carboxylic group, cation- π or π interactions with aromatic amino acids (Fig. 1a). While both lysine (Lys) and Arg have basic side chain groups, the guanidine group of Arg delocalizes the charge due to the π bonded system and thus can promote more versatile binding modes compared to Lys, through cation–π and π–π interactions. Thus, considering that the Arg side chain can interact with side chains of aromatic amino acids, we incorporated tryptophan (Trp) and tyrosine (Tyr) into the peptide sequence at a 1:1 stoichiometry with Arg, with aromatic amino acids positioned at both ends of the sequence to enhance π–π stacking interactions. Finally, we considered the elastin-like polypeptide (ELP) repeating motif VPGXG. This pentapeptide sequence is a common LLPS-promoting motif used in engineered ordered/disordered polypeptides, where X can be any amino acid except proline (Pro), and a hydrophobic amino acid at this position promotes coacervation[39],[40]. […] Building on these previous findings, we incorporated the sequence WPGVG, thus obtaining the 14-mer peptide WGRGRGRGWPGVGY termed WGR-1 (Figs. 1a, 2a). WGR-1 forms droplets by self-coacervation at neutral pH in the presence of 0.2 M NaCl, which reduces the electrostatic repulsion of the basic peptide (Fig. 1b). We created a phase diagram of WGR-1 as a function of pH and peptide concentration in tris buffer by gradually increasing the pH and monitoring LLPS, as indicated by appearance of sample turbidity (Fig. 2b), where all experiments performed at room temperature. As expected, increasing peptide concentration decreased the pH in which visible turbidity and droplets are observed, where the critical LLPS concentration is 8 mM. To confirm that the turbidity is a result of LLPS and droplet formation rather than aggregation, we used bright field laser scanning confocal microscopy (Fig. 2c).
Fig. 2 Peptide sequence controls LLPS propensity and droplet formation. a Table of the designed peptide sequences. b Phase diagram of the peptides as a function of peptide concentration and pH, in tris buffer with 0.2 M NaCl, at room temperature. […] Source data are provided as a Source Data file. c Confocal microscopy bright field images of peptide liquid droplets formed at a concentration of 20 mM in Tris buffer at pH 8 with 0.2 M NaCl. Scale bars = 20 μm. Inset: macroscopic images of the peptide solutions. ‘Source data are provided as a Source Data file. TEXT PRINTED IN THE PICTURE: (b) WGR-1: LLPS | (b) WGR-2: No LLPS | (b) WGR-3: LLPS | (b) WGR-4: LLPS | (b) WGR-5: LLPS | (b) WGK: No LLPS DOUBTS OF THE COPYIST ABOUT THIS PICTURE: Panel b: "LLPS" / "No LLPS" are class labels printed inside the phase diagrams, with no numbers. In the diagrams with a curve, "LLPS" marks a region of the plot. / Panel c: the handwritten labels on the vials in the insets cannot be read with certainty and were left out. […]

[2] = solution NMR
Method: pKa values were determined by following the chemical shifts of Trp1-Hα and Trp1-Hβ at pH values of 6.0, 7.0, 7.5, 8.0 and
9.0. The 10 obtained chemical shifts were fitted to the Henderson-Hasselbach equation with the assumption that peak
position is a weighted average of the two end-point chemical shifts; optimization parameters were the two end-point shifts
(representing fully ionized and fully deionized forms of the N-terminal amino group of the peptide. Errors were determined
by Monte Carlo simulations with a measurement error of 0.01 ppm for all chemical shifts.

Sequence: WGRGRGRGWPGVGY [WGR-1]
- %EE (GFP; replicate 1, given as fraction): 0.8616
- %EE (GFP; replicate 2, given as fraction): 0.9526
- %EE (GFP; replicate 3, given as fraction): 0.9328
- Encapsulation efficiency (EE) (GFP; 20 mM Tris + 0.2 M NaCl pH 8, supernatant fluorescence, average of replicates, in percent): 91.5647%
- pH at which turbidity (LLPS) appears ([1]; 8 mM peptide, mean of n=3): 8.483
- pH at which turbidity (LLPS) appears ([1]; 8 mM peptide, replicate 1): 8.43
- pH at which turbidity (LLPS) appears ([1]; 8 mM peptide, replicate 2): 8.47
- pH at which turbidity (LLPS) appears ([1]; 8 mM peptide, replicate 3): 8.55
- pH at which turbidity (LLPS) appears ([1]; 10 mM peptide, mean of n=3): 7.88
- pH at which turbidity (LLPS) appears ([1]; 10 mM peptide, replicate 1): 7.84
- pH at which turbidity (LLPS) appears ([1]; 10 mM peptide, replicate 2): 7.86
- pH at which turbidity (LLPS) appears ([1]; 10 mM peptide, replicate 3): 7.94
- pH at which turbidity (LLPS) appears ([1]; 15 mM peptide, mean of n=3): 7.483
- pH at which turbidity (LLPS) appears ([1]; 15 mM peptide, replicate 1): 7.45
- pH at which turbidity (LLPS) appears ([1]; 15 mM peptide, replicate 2): 7.51
- pH at which turbidity (LLPS) appears ([1]; 15 mM peptide, replicate 3): 7.49
- pH at which turbidity (LLPS) appears ([1]; 20 mM peptide, mean of n=3): 7.12
- pH at which turbidity (LLPS) appears ([1]; 20 mM peptide, replicate 1): 7.13
- pH at which turbidity (LLPS) appears ([1]; 20 mM peptide, replicate 2): 7.08
- pH at which turbidity (LLPS) appears ([1]; 20 mM peptide, replicate 3): 7.15
- pH at which turbidity (LLPS) appears ([1]; 30 mM peptide, mean of n=3): 6.85
- pH at which turbidity (LLPS) appears ([1]; 30 mM peptide, replicate 1): 6.82
- pH at which turbidity (LLPS) appears ([1]; 30 mM peptide, replicate 3): 6.88
- critical LLPS concentration ([1]; tris buffer, lowest of 5-30 mM at which turbidity/droplets form): 8 mM
- pKa of the N-terminal amine group ([2]; Trp1-Hα and Trp1-Hβ shifts at pH 6.0, 7.0, 7.5, 8.0, 9.0, Henderson-Hasselbach fit, error by Monte Carlo): 7.50 ± 0.01
- pKa of the Tyr14 phenolic ring ([2]; pH-induced chemical shift changes): ~ 10
